Measured values: EPA's ToxRefDB 2

What was measured:
rabbit = details: Prenatal developmental toxicity study, himalayan, Injection, Intravenous, dose end: 18 GD
dog [1] = details: Subchronic oral toxicity in nonrodent, beagle, Capsule, dose end: 3 month, group: systemic, systemic / clinical chemistry / alanine aminotransferase (alt/sgpt) / alanine aminotransferase (alt/sgpt)
rat [2] = details: Subchronic oral toxicity in rodents; wistar; Injection; Intravenous; dose end: 3 month; group: systemic; systemic / clinical chemistry / urea nitrogen / urea + systemic / hematology / erythrocyte (rbc) count differential / erythrocyte (rbc) + …
dog [3] = details: Sub-acute repeat dose toxicity, beagle, Injection, Intravenous, dose end: 4 week, group: systemic
dog [4] = details: Subchronic oral toxicity in nonrodent; beagle; Injection; Intravenous; dose end: 3 month; group: systemic; systemic / hematology / erythrocyte (rbc) count differential / erythrocyte (rbc) + systemic / hematology / hematocrit (hct) / hematocrit (…
mouse [5] = details: Carcinogenicity, other, Oral, Gavage/Intubation, dose end: 106 week, group: systemic
rat [6] = details: Fertility (Segment I); wistar; Injection; Intravenous; dose end: 7 GD; group: parental; systemic / in life observation / clinical signs / motor activity + systemic / in life observation / clinical signs / urine, discoloration + …
rat [7] = details: Fertility (Segment I), wistar, Injection, Intravenous, dose end: 26 PND
dog [8] = details: Chronic toxicity, beagle, Oral, Feed, dose end: 52 week, group: systemic
rat [9] = details: Multigenerational reproductive toxicity study, sprague dawley, Oral, Feed, dose end: 2 generation
rat [10] = details: Subchronic oral toxicity in rodents, sprague dawley, Feed, dose end: 13 week, group: systemic
mouse [11] = details: Carcinogenicity, cd1, Oral, Feed, dose end: 24 month, group: systemic
dog [12] = details: Subchronic oral toxicity in nonrodent, beagle, Capsule, dose end: 102 day, group: systemic
rat [13] = details: Sub-acute dermal toxicity, fischer, Topical, dose end: 21 day, group: systemic, systemic / in life observation / clinical signs / desquamation + systemic / pathology microscopic / skin / hyperkeratosis + systemic / …
rat [14] = details: Combined chronic toxicity/carcinogenicity, fischer, Oral, Feed, dose end: 129 week, group: systemic
mouse [15] = details: Subchronic oral toxicity in rodents, cd1, Feed, dose end: 90 day, group: systemic
rat [16] = details: Subchronic oral toxicity in rodents, sprague dawley, Feed, dose end: 90 day, group: systemic, systemic / organ weight / adrenal gland / absolute + systemic / organ weight / adrenal gland / relative to body weight + systemic / organ …
rat [17] = details: Chronic toxicity, sprague dawley, Oral, Feed, dose end: 104 week, group: systemic
[18] = group: developmental, developmental / developmental malformation / general / crown-rump length + systemic / in life observation / body weight / fetal weight
[19] = group: maternal, systemic / in life observation / body weight / body weight gain + systemic / in life observation / clinical signs / [other] + systemic / in …
[20] = systemic / in life observation / clinical signs / vomitting + systemic / organ weight / prostate / nos
[21] = systemic / hematology / erythrocyte (rbc) count differential / erythrocyte (rbc) + systemic / hematology / hematocrit (hct) / hematocrit (…
[22] = systemic / hematology / leukocyte (wbc) count differential / leukocyte (wbc) + systemic / organ weight / kidney / relative to body weight
[23] = group: developmental, developmental / offspring survival late / viability index / viability index
[24] = group: maternal, reproductive / reproductive performance / pregnancy / pregnancy
[25] = group: offspring, systemic / in life observation / clinical signs / [other] + systemic / in life observation / clinical signs / abnormal gait + systemic / in …
[26] = group: offspring, systemic / in life observation / clinical signs / abnormal gait + systemic / in life observation / clinical signs / convulsions + systemic…
[27] = group: parental, systemic / in life observation / body weight / body weight gain + systemic / in life observation / clinical signs / [other] + systemic / in …
[28] = systemic / pathology gross / stomach / adhesions + systemic / pathology gross / stomach / thickened + systemic / pathology microscopic / …
[29] = systemic / pathology microscopic / stomach / congestion + systemic / pathology microscopic / stomach / mineralization + systemic / clinical …
[30] = group: offspring, systemic / in life observation / body weight / offspring (pup) weight
[31] = group: parental, systemic / pathology microscopic / stomach / hyperkeratosis + systemic / pathology microscopic / stomach / hyperplasia + systemic / …
[32] = systemic / pathology microscopic / kidney / inclusion body intracytoplasmic
[33] = systemic / organ weight / liver / relative to body weight
[34] = systemic / pathology microscopic / kidney / adenoma + systemic / pathology microscopic / kidney / carcinoma
[35] = systemic / pathology microscopic / kidney / adenoma + systemic / pathology microscopic / kidney / carcinoma + systemic / pathology …
[36] = systemic / pathology gross / urinary bladder / lesion(s) (nos)
[37] = systemic / clinical chemistry / potassium / potassium
[38] = systemic / clinical chemistry / potassium / potassium + systemic / clinical chemistry / albumin / albumin + systemic / clinical chemistry / …

CC(C)c1ccc(C(=O)N=C(N)N)cc1S(C)(=O)=O.CS(=O)(=O)O [Cariporide mesylate]
LEL (rabbit; [18]): 40 mg/kg/day | LOAEL (rabbit; [18]): > 40 mg/kg/day | NEL (rabbit; [18]): 16 mg/kg/day | NOAEL (rabbit; [18]): ≥ 40 mg/kg/day | LOAEL (rabbit; [19]): > 40 mg/kg/day | NEL (rabbit; [19]): 6.3 mg/kg/day | NOAEL (rabbit; [19]): ≥ 40 mg/kg/day | LEL (rabbit; group: maternal, systemic / in life observation / clinical signs / piloerection + systemic / in life observation / food consumption / food consumption): 16 mg/kg/day | LEL (dog [1]): 8 mg/kg/day | LOAEL (dog [1]): > 20 mg/kg/day | NEL (dog [1]): 3.2 mg/kg/day | NOAEL (dog [1]): ≥ 20 mg/kg/day | LEL (rat [2]): 125 mg/kg/day | LOAEL (rat [2]): 125 mg/kg/day | NEL (rat [2]): 25 mg/kg/day | NOAEL (rat [2]): 25 mg/kg/day | NEL (dog [3]; systemic / in life observation / clinical signs / vomitting): 5 mg/kg/day | LEL (dog [3]; [20]): 20 mg/kg/day | LOAEL (dog [3]; [20]): > 20 mg/kg/day | NOAEL (dog [3]; [20]): ≥ 20 mg/kg/day | LEL (dog [4]): 1.25 mg/kg/day | LOAEL (dog [4]): > 20 mg/kg/day | NEL (dog [4]): < 1.25 mg/kg/day | NOAEL (dog [4]): ≥ 20 mg/kg/day | LOAEL (mouse [5]; [21]): > 500 mg/kg/day | NOAEL (mouse [5]; [21]): ≥ 500 mg/kg/day | LEL (mouse [5]; [22]): 50 mg/kg/day | NEL (mouse [5]; [22]): < 50 mg/kg/day | LEL (rat [6]): 100 mg/kg/day | LOAEL (rat [6]): > 100 mg/kg/day | NEL (rat [6]): 25 mg/kg/day | NOAEL (rat [6]): ≥ 100 mg/kg/day | LEL (rat [7]; [23]): 125 mg/kg/day | LOAEL (rat [7]; [23]): > 125 mg/kg/day | NEL (rat [7]; [23]): 25 mg/kg/day | NOAEL (rat [7]; [23]): ≥ 125 mg/kg/day | LEL (rat [7]; [24]): 125 mg/kg/day | LOAEL (rat [7]; [24]): > 125 mg/kg/day | NEL (rat [7]; [24]): 25 mg/kg/day | NOAEL (rat [7]; [24]): ≥ 125 mg/kg/day | LOAEL (rat [7]; [25]): > 125 mg/kg/day | NOAEL (rat [7]; [25]): ≥ 125 mg/kg/day | LEL (rat [7]; [26]): 5 mg/kg/day | NEL (rat [7]; [26]): < 5 mg/kg/day | LEL (rat [7]; [27]): 125 mg/kg/day | LOAEL (rat [7]; [27]): > 125 mg/kg/day | NEL (rat [7]; [27]): 25 mg/kg/day | NOAEL (rat [7]; [27]): ≥ 125 mg/kg/day

N#Cc1c(Cl)c(Cl)c(Cl)c(C#N)c1Cl [Chlorothalonil]
LOAEL (dog [8]; [28]): 43.3 mg/kg/day | NOAEL (dog [8]; [28]): 5.1 mg/kg/day | LEL (dog [8]; [29]): 5.1 mg/kg/day | NEL (dog [8]; [29]): < 5.1 mg/kg/day | LEL (rat [9]; [30]): 38 mg/kg/day | LOAEL (rat [9]; [30]): 234 mg/kg/day | NEL (rat [9]; [30]): < 38 mg/kg/day | NOAEL (rat [9]; [30]): 115 mg/kg/day | LEL (rat [9]; [31]): 38 mg/kg/day | LOAEL (rat [9]; [31]): 38 mg/kg/day | NEL (rat [9]; [31]): < 38 mg/kg/day | NOAEL (rat [9]; [31]): < 38 mg/kg/day | LEL (rat [10]; [32]): 1.5 mg/kg/day | LOAEL (rat [10]; [32]): 3 mg/kg/day | NEL (rat [10]; [32]): < 1.5 mg/kg/day | NOAEL (rat [10]; systemic / pathology microscopic / kidney / inclusion body intracytoplasmic + systemic / pathology microscopic / kidney / hyperplasia): 1.5 mg/kg/day | LOAEL (mouse [11]; systemic / in life observation / body weight / body weight): 225 mg/kg/day | NOAEL (mouse [11]; systemic / in life observation / body weight / body weight + systemic / hematology / erythrocyte (rbc) count differential / erythrocyte (rbc…): 112 mg/kg/day | LEL (mouse [11]; [33]): 56.2 mg/kg/day | NEL (mouse [11]; [33]): < 56.2 mg/kg/day | LEL (dog [12]; systemic / clinical chemistry / glucose / glucose): 15 mg/kg/day | LOAEL (dog [12]; systemic / clinical chemistry / glucose / glucose + systemic / organ weight / liver / absolute + systemic / urinalysis / ph / ph): 50 mg/kg/day | NOAEL (dog [12]; systemic / clinical chemistry / glucose / glucose + systemic / organ weight / liver / absolute + systemic / urinalysis / ph / ph + systemic…): 15 mg/kg/day | NEL (dog [12]; systemic / clinical chemistry / glucose / glucose + systemic / urinalysis / ph / ph + systemic / hematology / erythrocyte (rbc) count …): 5 mg/kg/day | LEL (rat [13]): 60 mg/kg/day | LOAEL (rat [13]): 60 mg/kg/day | NEL (rat [13]): < 60 mg/kg/day | NOAEL (rat [13]): < 60 mg/kg/day | LOAEL (rat [14]; [34]): 40 mg/kg/day | NOAEL (rat [14]; [34]): < 40 mg/kg/day | LEL (rat [14]; [35]): 40 mg/kg/day | NEL (rat [14]; [35]): < 40 mg/kg/day | LEL (mouse [15]; [36]): 1.12 mg/kg/day | NEL (mouse [15]; [36]): < 1.12 mg/kg/day | NOAEL (mouse [15]; systemic / pathology microscopic / stomach / hyperkeratosis + systemic / pathology microscopic / stomach / hyperplasia + systemic / clinical…): 2.25 mg/kg/day | LOAEL (mouse [15]; systemic / pathology microscopic / stomach / hyperkeratosis + systemic / pathology microscopic / stomach / hyperplasia + systemic / …): 7.5 mg/kg/day | LEL (rat [16]): 250 mg/kg/day | LOAEL (rat [16]): 750 mg/kg/day | NEL (rat [16]): < 250 mg/kg/day | NOAEL (rat [16]): 250 mg/kg/day | LEL (rat [17]; [37]): 0.5 mg/kg/day | NEL (rat [17]; [37]): < 0.5 mg/kg/day | LOAEL (rat [17]; [38]): 10 mg/kg/day | NOAEL (rat [17]; [38]): 3 mg/kg/day
